Assay [1] addresses T1, Prostaglandin D2 receptor (Homo sapiens, UniProt Q13258).
T1 sequence (Q13258 whole entry): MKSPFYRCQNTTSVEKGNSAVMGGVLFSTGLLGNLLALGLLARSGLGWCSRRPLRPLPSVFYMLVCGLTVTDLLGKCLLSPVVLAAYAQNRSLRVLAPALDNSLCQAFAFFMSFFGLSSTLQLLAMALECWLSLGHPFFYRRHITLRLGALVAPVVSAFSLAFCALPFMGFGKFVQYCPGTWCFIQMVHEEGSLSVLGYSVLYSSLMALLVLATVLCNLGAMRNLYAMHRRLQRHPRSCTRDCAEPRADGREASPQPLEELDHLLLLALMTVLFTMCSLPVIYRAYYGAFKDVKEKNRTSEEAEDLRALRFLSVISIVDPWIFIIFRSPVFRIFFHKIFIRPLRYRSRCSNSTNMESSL

The next assay has as its target Prostacyclin receptor (Homo sapiens, UniProt P43119).
The target of assay [2] is Prostaglandin E2 receptor EP2 subtype (Homo sapiens, UniProt P43116).
For assay [3], the target named is Prostaglandin E2 receptor EP4 subtype (Homo sapiens, UniProt P35408).
The target of assay [4] is T2, Prostaglandin E2 receptor EP1 subtype (Homo sapiens, UniProt P34995).
T2 sequence (P34995 whole entry): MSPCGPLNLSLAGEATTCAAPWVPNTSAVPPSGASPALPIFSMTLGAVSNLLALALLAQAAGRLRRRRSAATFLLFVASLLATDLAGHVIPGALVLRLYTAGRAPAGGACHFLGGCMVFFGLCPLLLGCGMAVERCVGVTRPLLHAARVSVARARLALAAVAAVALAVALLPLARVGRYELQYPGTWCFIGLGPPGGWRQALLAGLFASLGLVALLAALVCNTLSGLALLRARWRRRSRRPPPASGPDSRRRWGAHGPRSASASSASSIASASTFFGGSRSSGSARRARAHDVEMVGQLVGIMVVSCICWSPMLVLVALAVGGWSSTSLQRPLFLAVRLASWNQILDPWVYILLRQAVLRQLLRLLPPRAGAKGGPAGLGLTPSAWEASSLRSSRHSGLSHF

Assay [5] addresses T3, Prostaglandin E2 receptor EP3 subtype (Homo sapiens, UniProt P43115).
T3 sequence (P43115 whole entry): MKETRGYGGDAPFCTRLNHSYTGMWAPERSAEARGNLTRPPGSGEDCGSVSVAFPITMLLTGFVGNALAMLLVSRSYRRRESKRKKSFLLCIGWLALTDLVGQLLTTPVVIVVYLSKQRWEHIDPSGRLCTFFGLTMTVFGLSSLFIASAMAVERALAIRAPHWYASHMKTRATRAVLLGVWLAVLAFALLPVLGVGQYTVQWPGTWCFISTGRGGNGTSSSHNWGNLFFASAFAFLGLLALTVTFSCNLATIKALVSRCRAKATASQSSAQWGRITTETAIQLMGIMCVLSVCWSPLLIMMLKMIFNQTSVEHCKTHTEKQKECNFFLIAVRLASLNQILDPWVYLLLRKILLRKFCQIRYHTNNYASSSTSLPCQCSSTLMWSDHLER

Assay [6] concerns the target Prostaglandin F2-alpha receptor (Human, UniProt P43088).
For assay [7], the target named is Solute carrier organic anion transporter family member 2A1 (Homo sapiens, UniProt Q92959).

In general, Ki refers to a dissociation constant, usually derived from enzyme kinetics or from competition with a known ligand.

Prostaglandin F2-alpha receptor, sequence (P43088 whole entry): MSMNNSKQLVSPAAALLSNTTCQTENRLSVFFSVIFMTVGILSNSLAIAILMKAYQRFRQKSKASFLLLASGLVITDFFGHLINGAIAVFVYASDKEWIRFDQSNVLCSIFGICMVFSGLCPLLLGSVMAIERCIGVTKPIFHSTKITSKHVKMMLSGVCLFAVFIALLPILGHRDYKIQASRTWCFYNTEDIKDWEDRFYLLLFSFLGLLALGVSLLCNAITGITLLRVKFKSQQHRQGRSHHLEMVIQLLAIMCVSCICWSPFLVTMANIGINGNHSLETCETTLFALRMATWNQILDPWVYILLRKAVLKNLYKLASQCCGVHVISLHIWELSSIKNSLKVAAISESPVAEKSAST
Prostaglandin E2 receptor EP4 subtype, sequence (P35408 whole entry): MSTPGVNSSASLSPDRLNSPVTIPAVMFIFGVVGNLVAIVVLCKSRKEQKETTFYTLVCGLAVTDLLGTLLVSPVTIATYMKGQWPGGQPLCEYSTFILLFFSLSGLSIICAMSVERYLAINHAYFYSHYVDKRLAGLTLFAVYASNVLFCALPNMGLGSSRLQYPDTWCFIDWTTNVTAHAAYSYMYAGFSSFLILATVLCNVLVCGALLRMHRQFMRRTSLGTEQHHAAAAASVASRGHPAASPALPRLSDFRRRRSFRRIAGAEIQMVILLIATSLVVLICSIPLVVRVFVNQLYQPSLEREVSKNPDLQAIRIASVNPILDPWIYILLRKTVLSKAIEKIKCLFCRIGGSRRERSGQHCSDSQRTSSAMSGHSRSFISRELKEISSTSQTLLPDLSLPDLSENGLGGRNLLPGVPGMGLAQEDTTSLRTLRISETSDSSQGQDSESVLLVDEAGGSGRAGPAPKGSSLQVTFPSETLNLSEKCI
Prostaglandin E2 receptor EP2 subtype, sequence (P43116 whole entry): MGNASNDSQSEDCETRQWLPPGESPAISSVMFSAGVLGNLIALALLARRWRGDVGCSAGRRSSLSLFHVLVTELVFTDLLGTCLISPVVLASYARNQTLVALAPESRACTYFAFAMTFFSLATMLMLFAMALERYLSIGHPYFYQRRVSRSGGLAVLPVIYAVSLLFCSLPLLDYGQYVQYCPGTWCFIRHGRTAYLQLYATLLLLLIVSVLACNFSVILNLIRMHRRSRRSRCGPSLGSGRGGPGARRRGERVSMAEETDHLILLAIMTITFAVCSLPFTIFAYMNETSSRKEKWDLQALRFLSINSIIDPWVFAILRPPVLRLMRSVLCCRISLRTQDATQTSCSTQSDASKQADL
Prostacyclin receptor, sequence (P43119 whole entry): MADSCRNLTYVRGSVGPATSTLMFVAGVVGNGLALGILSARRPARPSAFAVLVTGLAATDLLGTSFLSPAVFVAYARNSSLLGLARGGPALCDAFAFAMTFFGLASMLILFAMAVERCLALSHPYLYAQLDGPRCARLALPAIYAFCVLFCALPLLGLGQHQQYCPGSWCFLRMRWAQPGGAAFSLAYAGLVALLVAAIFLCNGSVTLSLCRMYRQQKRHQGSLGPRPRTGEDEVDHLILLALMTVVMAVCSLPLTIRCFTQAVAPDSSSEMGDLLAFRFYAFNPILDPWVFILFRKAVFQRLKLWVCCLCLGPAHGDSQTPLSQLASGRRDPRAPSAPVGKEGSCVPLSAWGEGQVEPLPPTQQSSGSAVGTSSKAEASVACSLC

Turning to `CCCCC(C)(O)CC=CC1C(O)CC(=O)C1CCCCCCC(=O)OC` (stereo unspecified) [MISOPROSTOL (Methyl Ester)], the Ki in assay [1] was above 10000 nM; at Prostacyclin receptor it was above 10000 nM; in assay [2], above 10000 nM; in assay [3] it was 5500 nM; in assay [4], above 10000 nM; in assay [5], 319 nM. In addition, the Ki in assay [6] and in assay [7] was above 10000 nM each time.

As to `O=C(O)CCCCCCc1c(O)[nH]c(=O)n1CCC(O)C1CCCCC1` (stereo unspecified) [NSC_3080928], the Ki in assay [1] is 0.4 nM; on Prostacyclin receptor it was above 10000 nM; in assay [2], 219 nM; in assay [3], 132 nM; in assay [4], above 10000 nM; in assay [5], above 10000 nM. Besides, the Ki in assay [6] and in assay [7] was above 10000 nM throughout.

In the case of `COC(=O)CCC=C=CCC1C(=O)CC(O)C1C=CC(O)COc1ccccc1` (stereo unspecified) [NSC_5282207], the Ki in assay [1] was above 10000 nM; on Prostacyclin receptor, above 10000 nM; in assay [2] it was above 10000 nM; in assay [3], above 10000 nM; in assay [4] it was 82 nM; in assay [5] it was 12 nM. In addition, the figures for the Ki in assay [6] and in assay [7] were 88 nM and above 10000 nM, respectively.

Consider `O=C(O)CCCC=CCC1C(Cl)CC(O)C1C=CC(O)C1CCCCC1` (stereo unspecified) [NSC_5311503], for which the Ki came to 0.3 nM in assay [1]; 2140 nM on Prostacyclin receptor; 6 nM in assay [2]; 41 nM in assay [3]; 1.8 nM in assay [4]; 402 nM in assay [5]. The Ki in assay [6] was 1670 nM; in assay [7], 1120 nM.

Regarding `O=C(O)CCC/C=C\C[C@H]1[C@@H]2CCC(O2)[C@H]1CNNC(=O)Nc1ccccc1` [SQ 29548], the Ki (in assay [1]; at Prostacyclin receptor; in assay [2]; in assay [3]; in assay [4]; in assay [5]) was above 10000 nM throughout. In addition, the Ki in assay [6] was above 10000 nM; in assay [7] it was 4.1 nM.

Regarding `CCCCC[C@H](O)/C=C/C1[C@@H](C/C=C\CCCC(=O)O)[C@H]2CO[C@@H]1C2` (stereo partly specified) [U46619], the Ki in assay [1] was 3970 nM; at Prostacyclin receptor, above 10000 nM; in assay [2] it was above 10000 nM; in assay [3], 2010 nM; in assay [4], above 10000 nM; in assay [5], above 10000 nM. The values for the Ki in assay [6] and in assay [7] were 241 nM and 35 nM, respectively.

Consider `CC(C)OC(=O)CCC/C=C\C[C@@H]1[C@@H](CC[C@@H](O)CCc2ccccc2)[C@H](O)C[C@@H]1O` [isopropyl (5Z,9alpha,11alpha,15R)-9,11,15-trihydroxy-17-phenyl-18,19,20-trinorprost-5-en-1-oate], for which the Ki in assay [1] is above 10000 nM; on Prostacyclin receptor it was above 10000 nM; in assay [2], above 10000 nM; in assay [3] it was above 10000 nM; in assay [4], 1750 nM; in assay [5] it was 6500 nM. Also, the values for the Ki in assay [6] and in assay [7] were 2.8 nM and above 10000 nM, respectively.

The record behind these values is BindingDB's records for doi:10.1016/s1388-1981(99)00164-x (Merck Frosst Centre For Therapeutic Research, 2000).
